According to patent US20140031388A1, “AKT INACTIVATION BY TOCOPHERYL DERIVATIVES” (priority 2012, published 2014):

Tests used:
[1] = system: Akt membrane localization in LNCaP cells; assay: Immunocytochemistry, membrane localization of Akt; type: cell-based; conditions: DMSO-treated cells 38.0±5.7%
Method: (§1) After 24 hours treatment, LNCaP cells were fixed in 4% formaldehyde for 20 min before permeabilization with 0.1% Triton X-100 in PBS at room temperature for 1 hour followed by incubation in 1% FBS (in PBS) for 1 hour. Cells were stained for endogenous PH domain-containing proteins (Akt, PHLPP, PDK-1, ILK, BTK) by incubation with specific antibodies (1:100), followed by incubation with the Alexa Fluor 555-conjugated goat anti-rabbit or Alexa Fluor 488-conjugated goat anti-mouse IgG (1:200) at room temperature for 2 hours. Both primary and secondary antibodies were diluted in incubation buffer containing 0.1% Triton X-100 and 0.2% bovine serum albumin in PBS. The cells were washed in PBS after each step and mounted using […] mounting medium supplemented with DAPI (Vector Laboratories Inc., Burlingame, Calif.). The slides were allowed to set for at least 4 hours before confocal images were acquired using a Zeiss LSM 510 inverted confocal laser scanning microscope operated with Zeiss LSM 510 software. Image analysis was performed using ImageJ (NIH) software.

[2] = molecular target: T1, PH domain of PDK1 (GST-PH domain fusion protein) (Homo sapiens, UniProt O15530); assay: Surface plasmon resonance binding, PDK1 PH domain; conditions: SPR; means (n = 3) ± SD; read-out: Kd, PDK1 PH domain
T1 construct: made in house
T1 sequence (O15530 459-550 limits assumed): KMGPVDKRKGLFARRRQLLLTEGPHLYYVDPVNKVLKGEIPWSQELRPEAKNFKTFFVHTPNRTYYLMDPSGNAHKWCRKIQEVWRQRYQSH
Source text: (§2) The cDNA fragments corresponding to the putative PH domain sequences of PHLPP1 (+115 to +372), PDK1 (+1225 to +1671), Akt1 (+1 to +447) and ILK (+538 to +646) were PCR-amplified using the plasmids pcDNA-HA-PHLPP1, pWZL-Neo-Myr-FLAG-PDPK1, pcDNA-HA-PKB-T308D-S473D, and pCMV-SPORT-ILK (Addgene) as templates. The PCR products were then cloned into EcoRI/XhoI sites of the pGEX-4T1 expression vector (GE Healthcare Life Sciences) to generate four constructs (pGEX-4T1-PHLPP1, pGEX-4T1-PDPK1, pGEX-4T1-AKT1, pGEX-4T1-ILK) for the expression of GST-PH domain fusion proteins. The mutated Akt1 Y38G PH domain was generated from pGEX-4T1-AKT1 by site-directed mutagenesis using the QuikChange II XL Site-Directed Mutagenesis Kit (Agilent Technologies). The expression and purification of GST-PH domain fusion proteins were performed essentially as described previously. Thomas et al., Curr Biol 12, 1256 (2002). The purified PH domains were analyzed by SDS-PAGE using an overloaded gel with purities were estimated to be >95% using ImageJ software.
(§3) Binding experiments were performed using a Biacore T100 system (GE Healthcare, Piscataway, N.J.). The GST-PH domain fusion proteins were immobilized on a CM5 S Sensorchip using Biacore's Amine Coupling Kit to a level of 17,000 response units. VE5 compounds and di-octanoyl PIP3 at concentrations ranging from 0.1 to 100 μM and 1 to 20 μm, respectively, were injected at a high flow rate (30 μL/min) over the biosensor surface for binding analyses. DMSO concentrations in all samples and running buffer were 1% (v/v) or less. Data were analyzed using Biacore T100 Evaluation Software.

Akt1 Y38G PH domain = molecular target: T2, Akt1 Y38G PH domain (Homo sapiens, UniProt P31749, Y38G); assay: Surface plasmon resonance binding, Akt-Y38G PH domain mutant; conditions: SPR, P < 0.05 vs. Akt
T2 construct: made in house
T2 sequence (P31749 5-108 Y38G limits assumed): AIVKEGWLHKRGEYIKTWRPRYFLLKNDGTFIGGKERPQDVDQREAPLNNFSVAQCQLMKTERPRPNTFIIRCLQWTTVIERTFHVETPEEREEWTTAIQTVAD
Source text: as §2
Binding experiments were performed using a Biacore T100 system (GE Healthcare, Piscataway, N.J.). The GST-PH domain fusion proteins were immobilized on a CM5 S Sensorchip using Biacore's Amine Coupling Kit to a level of 17,000 response units. […] Data were analyzed using Biacore T100 Evaluation Software.

[3] = system: PDK-1 membrane localization; assay: Immunofluorescence, membrane localization of PDK-1 at higher concentrations; type: cell-based; conditions: 6 hours of exposure
Method: as §1, with “Cells” for “After 24 hours treatment, LNCaP cells were fixed in 4% formaldehyde for 20 min before permeabilization with 0.1% Triton X-100 in PBS at room temperature for 1 hour followed by incubation in 1% FBS (in PBS) for 1 hour. Cells”

[4] = system: PC-3-luc xenograft tumors; assay: PC-3-luc subcutaneous xenograft in athymic nude mice; type: in vivo; conditions: 50 mg/kg daily intraperitoneal, 21 days
Method: (§4) Male athymic nude mice (Hsd:Athymic Nude-Foxn1^nu/nu, 5-7 weeks of age) were purchased from Harlan Laboratories and group-housed under conditions of constant photoperiod (12 hours light: 12 hours dark) with ad libitum access to sterilized food and water. Ectopic tumors were established in athymic nude mice by subcutaneous injection of 1×10^6 PC-3-luc or 2×10^6 LNCaP-abl cells in a total volume of 0.1 mL serum-free medium containing 50% Matrigel (BD Biosciences). The establishment and growth of tumors were monitored weekly by measurement with calipers (tumor volume=width^2×length×0.52) and bioluminescence (PC-3-luc) using the IVIS™ imaging system (Xenogen Corporation, Alameda, Calif.). For bioluminescent imaging, mice anesthetized with isoflurane were imaged at 15, 20 and 25 min after intraperitoneal administration of firefly luciferin (150 mg/kg; Caliper Life Sciences) to capture maximal luminescence. Data acquisition and analysis were achieved using the Living Image® software (Xenogen). […] Body weights and tumor burdens were measured weekly. At the study endpoint, mice were euthanized, and blood was collected by cardiac puncture from all mice and submitted to The Ohio State University Comparative Pathology and Mouse Phenotyping Shared Resource for determination of complete blood counts and serum chemistry.

[5] = molecular target: VL2-deleted mutant of the PH domain of Akt (Homo sapiens, UniProt P31749); assay: Surface plasmon resonance binding, VL2-deleted Akt PH domain; conditions: SPR
VL2-deleted mutant of the PH domain of Akt, sequence (P31749 whole entry, looked up, stated change not applied, the tested form may be a part): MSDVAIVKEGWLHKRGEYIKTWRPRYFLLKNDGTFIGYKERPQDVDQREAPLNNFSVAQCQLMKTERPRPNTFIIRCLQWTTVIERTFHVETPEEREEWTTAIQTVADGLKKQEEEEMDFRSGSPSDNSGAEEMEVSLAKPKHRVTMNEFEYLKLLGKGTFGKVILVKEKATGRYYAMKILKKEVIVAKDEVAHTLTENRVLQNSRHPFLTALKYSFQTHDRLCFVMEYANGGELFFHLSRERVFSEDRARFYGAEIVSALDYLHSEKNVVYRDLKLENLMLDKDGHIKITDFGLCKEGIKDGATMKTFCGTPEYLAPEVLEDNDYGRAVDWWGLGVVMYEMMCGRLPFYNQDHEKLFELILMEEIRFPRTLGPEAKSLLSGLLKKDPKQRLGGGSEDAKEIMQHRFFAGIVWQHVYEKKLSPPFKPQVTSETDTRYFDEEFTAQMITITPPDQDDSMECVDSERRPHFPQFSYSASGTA
Method: as §3

[6] = Toxicologic evaluation in PC-3-luc tumor-bearing mice; type: in vivo
Method: as §4

[7] = system: LNCaP-abl xenograft tumors; assay: LNCaP-abl subcutaneous xenograft in athymic nude mice; type: in vivo
Method: as §4

[8] = 50 mg/kg daily intraperitoneal, 21 days
[9] = values within the normal ranges for mice

Row | Kd [2] [µM] | Kd (Akt1 Y38G PH domain) [µM] | Kd [5] [µM] | Compound | cells with membrane localization of Akt [1] [%] | membrane-associated PDK-1, share of total immunofluorescence signal ([3]; 25 μM) | membrane-associated PDK-1, share of total immunofluorescence signal ([3]; 35 μM) | PC-3-luc tumor growth relative to vehicle-treated controls (bioluminescence) ([4]; P<0.05) | intratumoral phosphorylation of Akt, MDM2 and IKKα ([4]; PC-3-luc tumors) | gross pathology findings at necropsy [6, 8] | change of mean body weight over the treatment period ([6]; 50 mg/kg daily intraperitoneal, 21 days, vehicle −0.2 grams) [grams] | change of mean body weight over the treatment period ([6]; 50 mg/kg daily intraperitoneal, 21 days, vehicle −0.7%) [%] | hematological findings relative to controls [6, 9] | serum chemistry findings [6, 9] | LNCaP-abl tumor growth relative to vehicle-treated controls [7, 8] | intratumoral phosphorylation of Akt at Ser473, MDM2 and IKKα ([7]; LNCaP-abl tumors, relative to vehicle-treated controls)
1 | 19.3 ± 0.6 | 0.48 ± 0.13 | – | Cc1c(C)c2c(c(C)c1O)CC[C@@](C)(CCCC(C)C)O2 [α-VE5, (R)-2,5,7,8-tetramethyl-2-(4-methylpentyl)-chroman-6-ol] | 65.0±8.9 | – | – | – | – | – | – | – | – | – | – | –
2 | 12.4 ± 0.1 | 0.49 ± 0.02 | 30 ± 4 | Cc1c(O)cc2c(c1C)O[C@](C)(CCCC(C)C)CC2 [γ-VE5, (R)-2,7,8-trimethyl-2-(4-methylpentyl)-chroman-6-ol] | 71.4±2.5 | approximately 50% | greater than 90% | inhibited PC-3-luc tumor growth | suppressed phosphorylation of Akt at Ser^473 without disrupting that at Thr^308 | abdominal adhesions and variable amounts of clear fluid within the abdomen | −0.7 | −2.3 | reductions in hematocrit, red blood cell numbers and hemoglobin concentration | increase in aspartate aminotransferase and a decrease in serum albumin concentrations | significantly inhibited tumor growth | reduced phosphorylation
